Measurements taken from publication PMC7561186, “Rational design of balanced dual-targeting antibiotics with limited resistance” (PLoS Biology, 2020).
“And” between values parts separate entries of the source, which are not always exact repeats. Equal values may be shown once. Read-outs that look alike come from different tables or passages of the source.

Legend:
Acinetobacter baumannii = assay: MIC, broth microdilution (CLSI); format: cell-based
Description: (§1) MICs were determined using a standard serial broth microdilution technique according to the CLSI guidelines. Briefly, bacterial strains were inoculated onto MHBII agar plates and were grown overnight at 37 °C. Next, 3 individual colonies from each strain were inoculated into 1 mL MHBII medium and propagated at 37 °C, 250 rpm overnight. In the cases of Enterococcus and Streptococcus sp., cells were plated to BHI agar plates, and BHI broth was used to determine MICs. […] Following dilutions, each well was seeded with 5×10^4 bacterial cells. All measurements were performed in 3 parallel replicates and to avoid possible edge effects in microwell plates, side rows (A and H) were filled with sterile medium. Following inoculations, plates were covered with lids and wrapped in polyethylene plastic bags to minimize evaporation but allow for O2 transfer. Plates were incubated at 37 °C under continuous shaking at 150 rpm for 18 hours. After incubation, OD600 of each well was measured using a BioTek Synergy 2 microplate reader.

Clostridium difficile = assay: MIC, broth microdilution (CLSI); format: cell-based
Description: as §1

Enterococcus faecalis = assay: MIC, broth microdilution (CLSI); format: cell-based
Description: as §1

Enterococcus faecium = assay: MIC, broth microdilution (CLSI); format: cell-based
Description: as §1

Escherichia coli = assay: MIC, broth microdilution (CLSI); format: cell-based; conditions: Escherichia coli ATCC 25922
Description: as §1

Haemophilus influenzae = assay: MIC, broth microdilution (CLSI); format: cell-based
Description: as §1

Helicobacter pylori = assay: MIC, broth microdilution (CLSI); format: cell-based; conditions: Helicobacter pylori ATCC 43504
Description: as §1

Klebsiella pneumoniae = assay: MIC, broth microdilution (CLSI); format: cell-based; conditions: Klebsiella pneumoniae ATCC 10031
Description: as §1

Listeria monocytogenes = assay: MIC, broth microdilution (CLSI); format: cell-based; conditions: Listeria monocytogenes ATCC 19111
Description: as §1

Neisseria gonorrhoeae = assay: MIC, broth microdilution (CLSI); format: cell-based
Description: as §1

Pseudomonas aeruginosa = assay: MIC, broth microdilution (CLSI); format: cell-based
Description: as §1

Shigella flexneri = assay: MIC, broth microdilution (CLSI); format: cell-based
Description: as §1

Staphylococcus aureus = assay: MIC, broth microdilution (CLSI); format: cell-based
Description: as §1

Streptococcus pneumoniae = assay: MIC, broth microdilution (CLSI); format: cell-based
Description: as §1

Streptococcus pyogenes = assay: MIC, broth microdilution (CLSI); format: cell-based
Description: as §1

S. aureus = assay: pH-dependent MIC determination; format: cell-based; conditions: Staphylococcus aureus
Description: as §1

[1] = test system: S. aureus VISA ATCC 700699 GyrB / ParE mutants; assay: MIC of spontaneous resistant mutants (single-step and second-step); format: cell-based; conditions: Staphylococcus aureus
Description: as §1

[2] = Pharmacokinetics measurement in skin tissue; format: in vivo, mice
Description: Pharmacokinetics measurement of ULD1 and ULD2 in skin tissue was conducted parallelly with the mice dermal infection study. In all cases, skin tissue samples were collected at the termination and homogenized following the same method as homogenate preparation for bacterial enumeration. Before measurement, protein precipitation was performed by treating the samples with acetonitrile. Analytics were the performed by liquid chromatography coupled mass spectrometry (LC/MS/MS) on an AB SCIEX QTRAP mass spectrometer in electrospray, positive ions ionization mode, and with Multiple Reaction Monitoring scan mode. Samples were analyzed on a Phenomenex Luna 5u Phenyl-Hexyl 50 × 2.0 mm HPLC column in a mobile phase of A: acetonitrile/formic acid = 100/0.2 (v/v), and mobile phase of B: water / formic acid = 100/0.2 (v/v). The column’s temperature was set to 30 °C, the injection volumes were 10 μL, and measurement time was 5 minutes in all cases. Oxybutynin (0.01 ng/μL in acetonitrile) was used as an internal standard for the measurement. Finally, the concentration of the drug in tissue samples was calculated from the peak area ratio.

HepG2 cells = conditions: LDH assay
Description: (§2) Cytotoxicity of compounds on HepG2 and MCF-7 mammalian cell lines was determined by using a standard LDH assay. Briefly, HepG2 and MCF-7 cells were cultured in Eagle’s MEM medium (from Gibco) supplemented with 2 mM L-glutamine (Sigma), 100 U/mL penicillin (Sigma), and 100 μg/mL streptomycin (Sigma), and 10% FBS (Gibco) at 37 °C and under 5% CO2. Next, LDH assays were performed according to manufacturer instructions (Thermo Fisher Scientific, Massachusetts, USA). By using a CyQUANT LDH Cytotoxicity Assay Kit. Firstly, the cells were seeded in 96-well microtiter plates at 10^5 cells/mL (100 μL/well) and allowed to attach overnight. […] Lysis buffer (10 μL, Thermo Fisher Scientific) was then added to the maximal LDH activity control wells and incubated additional 45 minutes. The cell culture supernatant (50 μL) was then transferred to a new 96-well plate and mixed with 50 μL of the reaction mixture. After 30 minutes on room temperature, reactions were stopped with 50 μL of the Stop solution. Absorbance (490 nm and 680 nm) was measured with the automatic microplate reader Synergy 4 Hybrid Microplate Reader (BioTek, VT, USA). All experiments were performed in triplicates and repeated 3 times. Statistical significance (P < 0.05) was calculated with 2-tailed Welch’s t-test between treated groups and DMSO. The percentage of cytotoxicity was determined according to the following equation: %Cytotoxicity=(CompoundtreatedLDHactivity-SpontaneousLDHactivity/MaximumLDHactivity-SpontaneousLDHactivity)*100

in vitro = conditions: human
Description: as §2

Cc1[nH]c(C(=O)Nc2nc3ccc(C(=O)O)cc3s2)c(Cl)c1Cl [ULD1]
MIC (Acinetobacter baumannii; ATCC19606, Acinetobacter baumannii ATCC 19606): 2 µg/mL | MIC (Acinetobacter baumannii; Acinetobacter baumannii ATCC 17978): 4 µg/mL | MIC (Acinetobacter baumannii; Acinetobacter baumannii ATCC 19606): 2 µg/mL | MIC (Clostridium difficile; Clostridioides difficile, BAA1875): ≤ 0.0312 µg/mL | MIC (Clostridium difficile; Clostridium difficile BAA-1875): < 0.0312 µg/mL | MIC (Enterococcus faecalis; Enterococcus faecalis ATCC 29212): 0.125 µg/mL | MIC (Enterococcus faecalis; Enterococcus faecalis ATCC 51575, VRE (VanB+)): 0.0625 µg/mL | MIC (Enterococcus faecium; Enterococcus faecium ATCC 19434): 2 µg/mL | MIC (Enterococcus faecium; Enterococcus faecium ATCC 700221, VRE (VanA+)): 0.0625 µg/mL | MIC (Enterococcus faecium; Enterococcus faecium BAA-2320, VRE (VanA+)): 0.25 µg/mL | MIC (Enterococcus faecium; Enterococcus faecium CCUG 56858, VRE (VanB+)): 2 µg/mL | MIC (Escherichia coli): 4 µg/mL | MIC (Haemophilus influenzae; ATCC49247, Haemophilus influenzae ATCC 49247): ≤ 0.0312 µg/mL | MIC (Haemophilus influenzae; Haemophilus influenzae ATCC 35056): 0.125 µg/mL | MIC (Haemophilus influenzae; Haemophilus influenzae ATCC 49247): < 0.0312 µg/mL | MIC (Helicobacter pylori): 4 µg/mL | MIC (Klebsiella pneumoniae; ATCC10031): 1 µg/mL | MIC (Klebsiella pneumoniae): 1 µg/mL | MIC (Listeria monocytogenes; ATCC19111): 0.125 µg/mL | MIC (Listeria monocytogenes): 0.125 µg/mL | MIC (Neisseria gonorrhoeae; CCUG57598, Neisseria gonorrhoeae CCUG 57598): ≤ 0.0312 µg/mL | MIC (Neisseria gonorrhoeae; Neisseria gonorrhoeae ATCC 700825): < 0.0312 µg/mL | MIC (Neisseria gonorrhoeae; Neisseria gonorrhoeae CCUG 57598): < 0.0312 µg/mL | MIC (Pseudomonas aeruginosa; ATCC27853, Pseudomonas aeruginosa ATCC 27853): 8 µg/mL | MIC (Pseudomonas aeruginosa; Pseudomonas aeruginosa ATCC 27853): 8 µg/mL | MIC (Pseudomonas aeruginosa; Pseudomonas aeruginosa B3-1811, Ciprofloxacin-R, Cephalosporin-R): > 64 µg/mL | MIC (Shigella flexneri; Shigella flexneri 668): 16 µg/mL | MIC (Shigella flexneri; Shigella flexneri HNCMB 20018): 8 µg/mL | MIC (Staphylococcus aureus; Staphylococcus aureus (strain not given), MRSA (SCCmec type IV), Oxacillin-R, VSSA, Cephalosporin-R, Erythromycin-R): 1 µg/mL | MIC (Staphylococcus aureus; Staphylococcus aureus ATCC 29213): 1 µg/mL | MIC (Staphylococcus aureus; Staphylococcus aureus ATCC 33594, MSSA, VSSA): 0.5 µg/mL | MIC (Staphylococcus aureus; Staphylococcus aureus ATCC 43300, MRSA): 0.125 µg/mL | MIC (Staphylococcus aureus; Staphylococcus aureus ATCC 700699 (Mu50, NRS1), MRSA, VISA): 0.0625 µg/mL | MIC (Staphylococcus aureus; Staphylococcus aureus CDC AR-BANK 0218, MRSA, VISA): 1 µg/mL | MIC (Staphylococcus aureus; Staphylococcus aureus ECL 2963646, MRSA, VRSA): 0.125 µg/mL | MIC (Staphylococcus aureus; Staphylococcus aureus NRS271, MRSA, Linezolid-R): 1 µg/mL | MIC (Staphylococcus aureus; Staphylococcus aureus USA300, ATCC BAA-1717, MRSA): 0.5 µg/mL | MIC (Staphylococcus aureus; Staphylococcus aureus USA400, BAA-1707, NRS123, MRSA): 0.5 µg/mL | MIC (Staphylococcus aureus; Staphylococcus aureus, ATCC 700699 / MRSA / NRS 1 / VISA, S. aureus ATCC 700699 (Mu50, NRS1), MRSA, VISA): 0.0625 µg/mL | MIC (Staphylococcus aureus; Staphylococcus aureus, S. aureus ECL 2963646, MRSA, VRSA): 0.125 µg/mL | MIC (Streptococcus pneumoniae; Streptococcus pneumoniae ATCC 49619): 0.25 µg/mL | MIC (Streptococcus pneumoniae; Streptococcus pneumoniae ATCC 51916): 0.5 µg/mL | MIC (Streptococcus pneumoniae; Streptococcus pneumoniae ATCC 700673): 0.5 µg/mL | MIC (Streptococcus pyogenes; Streptococcus pyogenes ATCC 14289): 0.25 µg/mL | MIC (Streptococcus pyogenes; Streptococcus pyogenes ATCC 19615): 0.125 µg/mL | MIC (S. aureus; S. aureus ATCC 43300 (MRSA), pH 5.5): 0.004 µg/mL | MIC (S. aureus; S. aureus ATCC 43300 (MRSA), pH 7.3): 0.1 µg/mL | MIC (S. aureus; S. aureus ATCC 700699 (VISA), pH 5.5): 0.00025 µg/mL | MIC (S. aureus; S. aureus ATCC 700699 (VISA), pH 7.3): 0.04 µg/mL | MIC ([1]; VISA GyrB I175T): 0.198 µg/mL | MIC ([1]; VISA GyrB R144G): 0.132 µg/mL | MIC ([1]; VISA GyrB R144I): 0.198 µg/mL | MIC ([1]; VISA wt, read-out: MIC): 0.04 µg/mL | MIC ([1]; second-step mutant, selection ULD1 at 16× MIC, GyrB I175T, ParE A120D): 4 µg/mL | MIC ([1]; second-step mutant, selection ULD1 at 16× MIC, GyrB I175T, ParE F95Y): 4 µg/mL | MIC ([1]; second-step mutant, selection ULD1 at 16× MIC, GyrB I175T, ParE R136G): 4 µg/mL | MIC ([1]; second-step mutant, selection ULD1 at 16× MIC, GyrB I175T, ParE T166A): 2 µg/mL | MIC ([1]; second-step mutant, selection ULD1 at 16× MIC, GyrB I175T, ParE T166I): 2 µg/mL | MIC ([1]; second-step mutant, selection ULD1 at 16× MIC, GyrB R144I, ParE A120D): 2 µg/mL | MIC ([1]; second-step mutant, selection ULD1 at 16× MIC, GyrB R144I, ParE F95Y): 2 µg/mL | MIC ([1]; second-step mutant, selection ULD1 at 16× MIC, GyrB R144I, ParE R136G): 2 µg/mL | MIC ([1]; second-step mutant, selection ULD2 at 8× MIC, GyrB I175T, ParE A120D): 4 µg/mL | MIC ([1]; second-step mutant, selection ULD2 at 12× MIC, GyrB R144I, ParE A120D): 2 µg/mL | MIC ([1]; second-step mutant, selection ULD2 at 12× MIC, GyrB R144I, ParE F95Y): 2 µg/mL | MIC ([1]; second-step mutant, selection ULD2 at 12× MIC, GyrB R144I, ParE R136G): 4 µg/mL | Drug concentration in mouse skin tissue (individual mice) ([2]; 73 h, 3 days twice-a-day topical 20 μL ointment containing 2% drug): 8853 ng/mL and 14630 ng/mL and 6624 ng/mL | Drug concentration in mouse skin tissue, Mean ([2]; 73 h, 3 days twice-a-day topical 20 μL ointment containing 2% drug, n = 3): 10036 ng/mL | skin concentration as multiple of the MIC in wild-type S. aureus VISA ([2]; topical treatment, mouse skin): up to 300 times the MIC | Max. % inhibition at 100 µM (HepG2 cells): Max. % inhibition at 100 µM: 1.53% | IC50 (in vitro): > 100 µM
